Values joined by “and” are separate entries in the source; they are usually repeats but may differ in a detail not shown here. Equal entries are not always repeated. Where two headings read alike, the source gives them in different places.
Experiments:
5α-reductase = 5α-reductase inhibition activity in prostate cancer cells DU-145; format: cell-based, human; conditions: FIG. 5, lanes 3 and 4 vs control lane 2
Text: (§1) Prostate cancer cells are the representatives of the study of 5α-reductase inhibition activity due to the production of 5α-reductase in prostate cancer cells.

[1] = system: prostate cancer cells DU-145; conditions: human
Text: as §1

[2] = applying 10% vitamin C; cited from earlier work
[3] = Free-radical nitric oxide binding using Griess reagent; conditions: triplicate
Text: (§2) These are used in free-radical binding studies by the DPPH method and in free-radical nitric oxide binding using Griess reagent.

[4] = Free-radical DPPH binding study
Text: From the free-radical DPPH binding study, Shatavari extract has an SC50 of 5.92+0.03 milligrams per milliliter. […] Also, the free-radical DPPH binding activity of non-diluted Shatavari extract is 91.15+0.97%.
as §2

breast cancer cells MCF7 = assay: Estrogen hormone stimulation activity: % survival of breast cancer cells MCF7; format: cell-based, human
Text: Breast cancer cells are the representatives of the study of estrogen receptor stimulation activity because breast cancer cells are responsible for estrogen hormone.

## CC(C)(C)NC(=O)[C@H]1CC[C@H]2[C@@H]3CC[C@H]4NC(=O)C=C[C@]4(C)[C@H]3CC[C@]12C [finasteride]
5α-reductase
  agarose gel band of 5α-reductase DNA (700-bp fragment) from treated DU-145 cells: faded
[1]
  highest concentration non-cytotoxic to prostate cancer cells DU-145: 10 micrograms per milliliter
[1]; 0.01 μg/mL
  % Survival of prostate cancer cells DU-145 (means ± S.D.): 100.19%
[1]; 0.1 μg/mL
  % Survival of prostate cancer cells DU-145 (means ± S.D.): 99.75%
[1]; 1 μg/mL
  % Survival of prostate cancer cells DU-145 (means ± S.D.): 94.89%
[1]; 100 μg/mL
  % Survival of prostate cancer cells DU-145 (means ± S.D.): 0%

## O=C1O[C@H]([C@@H](O)CO)C(O)=C1O [vitamin C, L-ascorbic acid]
[2]
  reduction of sunburn: 40-60%
  reduction of the skin's redness from UVB exposure: 52%
[3]
  IC50 of free-radical nitric oxide binding: 0.84 ± 0.02 milligrams per milliliter
[4]
  SC50 (IC50) of free-radical DPPH binding: 0.02 ± 0.01 milligrams per milliliter

## C[C@]12CC[C@@H]3c4ccc(O)cc4CC[C@H]3[C@@H]1CC[C@@H]2O [β-estradiol]
Breast cancer cells MCF7; concentration 0.1 μg/mL
  % survival of breast cancer cells MCF7 (means ± S.D.): 92.14%
Breast cancer cells MCF7; concentration 1 μg/mL
  % survival of breast cancer cells MCF7 (means ± S.D.): 101.82%
Breast cancer cells MCF7; concentration 10 μg/mL
  % survival of breast cancer cells MCF7 (means ± S.D.): 98.84%
Breast cancer cells MCF7; concentration 100 μg/mL
  % survival of breast cancer cells MCF7 (means ± S.D.): 96.53%
Breast cancer cells MCF7; concentration 1,000 μg/mL
  % survival of breast cancer cells MCF7 (means ± S.D.): 107.2% and 107.20 ± 5.37%

Reference: US20240398694A1, “SKINCARE COMPOSITION CONTAINING SHATAVARI EXTRACT” (Bangkok Lab and Cosmetic Public Company Limited, priority 2023, published 2024)
